Assay results published in ChEMBL document CHEMBL1165854, “Computational screening for membrane-directed inhibitors of mast cell activation” (Eur J Med Chem, 2010).

Columns and labels:
[1] = tested on: RBL-2H3; assay: Inhibition of rat RBL2H3 […] assessed as reduction of beta hexasaminidase release; assay type: functional, cell-based
[2] = Toxicity in rat RBL2H3 cells; assay type: cell-based, RBL-2H3; settings: read-out: MTD
[3] = tested on: RBL-2H3; assay: Inhibition of rat RBL2H3 […] assessed as reduction of beta hexasaminidase release at 10 uM; assay type: functional
[4] = tested on: RBL-2H3; assay: Inhibition of rat RBL2H3 […] assessed as reduction of beta hexasaminidase release at 25 uM; assay type: functional

Row | Structure (SMILES) | IC50 [1] | MNTC [2] | inhibition at 10 µM [3] | inhibition at 25 µM [4]
1 | CCCCCCCCCCCCCCCCOP(=O)([O-])OC1CC2CCC(C1)[N+]2(C)C (stereo not drawn) | 5.7 µM | 25 µM | 82% | 
2 | CCCCCCCCCCCCCCCCSCC(COC)COP(=O)([O-])OCC[N+](C)(C)C (stereo not drawn) [ILMOFOSINE] | 6.4 µM | 50 µM | 84% | 
3 | CCCCCCCCCCCCCCCCNc1c2c(nc3c(C)cc(C)cc13)CC(C)(C)CC2=O |  |  |  | 7%
4 | CCCCCCCCCCCCCCCCCCOC[C@H](COP(=O)([O-])OCC[N+](C)(C)C)OC [(R)-EDELFOSINE] | 7.1 µM | 25 µM |  | 79%
5 | CCCCCCCCCCCCCCCCCCOP(=O)([O-])OC1CC[N+](C)(C)CC1 [PERIFOSINE] | 5 µM | 25 µM | 88% | 
6 | CCCCCCCCCCCCCCCCOC(=O)C[n+]1csc(CCO)c1C | 5.5 µM | 50 µM |  | 93%
7 | CCCCCCCCCCCCCCCCCC(=O)Nc1c(C)c(CC)nc2ccccc12 |  |  |  | 10%
8 | CCCCCCCCCCCCCCCCOP(=O)([O-])OCC[N+](C)(C)C [MILTEFOSINE] | 4.6 µM | 25 µM | 87% | 
9 | CCCCCCCCCCCCCCCCOP(=O)([O-])OCC[N+](C)(CC)CC | 4.4 µM | 50 µM | 88% | 
